Reference: patent publication US11986482B2, “Method of promoting antitumor or anti-cancer immunity” (City University of Hong Kong, priority 2021, dated 2024)
Entries after “also recorded” stand apart in the source; their conditions may differ.

What was measured:
PD-L1 [1] = test: Plasma membrane PD-L1 level in 4T1 cells (flow cytometry); assay type: cell-based, mouse; details: 4T1 cells, GW4869 10 μM with 6J1 1 μM
Method: (§1) The current PD-L1 and PD1 therapies apply PD-L1 or PD1 monoclonal antibodies to block the PD-L1/PD1 signaling, which results in cytotoxic T cells recognizing and killing the tumor cells. […] First, flow cytometry-based quantification of plasma membrane levels of PD-L1 in 4T1 cells treated with or without 6J1 (1 μM) for 24 h. 4T1 cells are treated with or without 6J1 (1 μM) for 24 h. The supernatant is collected, and the concentration of extracellular vesicle is determined using a Nanosight nanoparticle analyzer in FIG. 8b. The exosomes are also collected and subjected to western blot analysis of the EVs marker and PD-L1 in FIG. 8c.
Therefore, it is possible that the increased exosomal PD-L1 secretion induced by 6J1 may still suppress the tumor-infiltrating T cell cytotoxicity in vivo, even though 6J1 reduces the cell surface expression level of PD-L1 on the tumor cells. To evaluate the role of exosomal PD-L1 in the tumor microenvironment and tumor progression in mice, inventors knock out Rab27a in 4T1 cells to inhibit the secretion of exosomes. 4T1-shNC or 4T1-shRab27A cells are treated with or without 6J1 (1 μM). The supernatant is collected, and the concentration of extracellular vesicle is determined using a Nanosight nanoparticle analyzer. […] Inventors analyze the plasma membrane levels of PD-L1 in 4T1-shNC or 4T1-shRab27A cells treated with or without 6J1 (1 μM). […] Next, control or Rab27a-knockout 4T1 cells are orthotopically transplanted into syngeneic fat pads of female Balb/c. The mice are randomly divided (n=5 per group) and treated with either buffer or 6J1 (30 mg/kg, daily) via oral gavage. […] Inventors also perform the immunostaining of CD8 and Granzyme B in the tumor sections. […] Since enhanced antitumor immunity leads to increased apoptosis in tumors, inventors assess the levels of cleaved caspase3 (CCA3), one of the markers of apoptosis, in tumor sections as well.
Finally, inventors assess the combinatory effects of 6J1 with GW4869, an exosome secretion inhibitor, in the aforementioned orthotopic mammary carcinoma mouse models. […]

4T1 cells = test: Extracellular vesicle concentration, Nanosight nanoparticle analyzer, 4T1 cells; assay type: cell-based, mouse; details: 4T1 cells, GW4869 10 μM with 6J1 1 μM
Method: as §1
To assess whether the in vivo antitumor growth effect of 6J1 is related to its effect on PD-L1 in 4T1 cells, inventors knock out PD-L1 via CRISPR/Cas9 in 4T1 cells (FIG. 10a). 4T1-NC or 4T1-PD-L1 knockout cells are treated with or without 6J1 (1 μM) for 24 h. The supernatant is collected, and the concentration of extracellular vesicle is determined using a Nanosight nanoparticle analyzer. The exosomes are also collected and subjected to western blot analysis of the EVs marker and PD-L1. […] Inventors then transplant control or PD-L1-knockout 4T1 cells into the fat pad of syngeneic female Balb/c mice. The mice are randomly divided (n=5 per group) and treated with either buffer or 6J1 (30 mg/kg, daily) via oral gavage.
Therefore, it is possible that the increased exosomal PD-L1 secretion induced by 6J1 may still suppress the tumor-infiltrating T cell cytotoxicity in vivo, even though 6J1 reduces the cell surface expression level of PD-L1 on the tumor cells. To evaluate the role of exosomal PD-L1 in the tumor microenvironment and tumor progression in mice, inventors knock out Rab27a in 4T1 cells to inhibit the secretion of exosomes. 4T1-shNC or 4T1-shRab27A cells are treated with or without 6J1 (1 μM). The supernatant is collected, and the concentration of extracellular vesicle is determined using a Nanosight nanoparticle analyzer. […] Inventors analyze the plasma membrane levels of PD-L1 in 4T1-shNC or 4T1-shRab27A cells treated with or without 6J1 (1 μM). […]

PD-L1 [2] = test: Western blot of PD-L1 in total cell lysates and exosomes of HeLa cells; assay type: cell-based; details: HeLa cells, 48 h, Bafilomycin A1 10 nM, Torin 1 100 nM; for exosomal PD-L1 level: ionomycin 1 μM, 6J1 1 μM
Method: PD-L1 has been previously shown to be secreted outside the cell through exosomes. HeLa cells are plated on coverslips in 24-well plates and stained with the anti-PD-L1 antibody on ice for 1 h. At the indicated times after being incubated at a warm medium at 37° C., cells are fixed and stained with antibodies against CD63 or Rab27a. […] Cells are treated with or without ionomycin (1 μM) for 48 h. The supernatant is collected and subjected to western blot analysis. […] Since the amphisome, which is formed by the fusion of the autophagosome with the MVB/late endosome, has been implicated in extracellular vesicles secretion, and PD-L1 is found to be associated with LC3B during PD-L1 trafficking (FIG. 2a), inventors examine whether the autophagosome formation is involved in exosomal PD-L1 secretion. Thus, inventors knock out the expression of Rab27A, LC3B or ATG4B in HeLa cells and collect their supernatant respectively for western blot analysis.
Furthermore, HeLa cells are treated with or without Bafilomycin A1 (10 nM), or Torin 1 (100 nM) for 48 h. The cell lysates and supernatant are collected for western blot analysis. […] In contrast, Torin1, an autophagy activator, has little effect on total and exosomal PD-L1 levels (FIG. 2g). […] On the other hand, blockage on the fusion between lysosomes and late endosomes or autophagosomes may induce PD-L1 secretion via exosomes.
It has previously been shown that interfering with endosomal trafficking promotes exosome secretion. Moreover, PD-L1 has been reported to be enriched in exosomes and secreted outside the cell. Thus, inventors speculate that 6J1 may induce the secretion of the PD-L1 trapped in the endosomal compartments via exosomes. To determine whether 6J1 may induce the secretion of PD-L1 via exosomes, HeLa cells are treated with or without 6J1 (1 μM) for 24 h. The supernatant is collected. Inventors purify the exosomes from the supernatant of HeLa cells by sequential centrifugation. The concentration of extracellular vesicle is determined using a Nanosight nanoparticle analyzer. And HeLa cells are treated with or without 6J1 (1 μM) for 48 h. The cell and supernatant are collected for Western Blot analysis. […] Moreover, the activity of Rab27a in HeLa cells treated with or without 6J1 (1 μM) is examined with a GST-SHD pulldown assay.
Moreover, ATG5- or LC3-knockout HeLa cells are treated with or without 6J1 (1 μM) for 24 h. The supernatant is collected, and the concentration of the extracellular vesicle is determined using a Nanosight nanoparticle analyzer. The exosomes are also collected and subjected to western blot analysis of the EVs marker and PD-L1 in FIG. 7a. The live cells are also labeled with an anti-PD-L1 antibody in FIG. 7b and subjected to flow cytometry analysis in FIG. 7c. […] In addition, inventors assess whether other autophagy-related genes, e.g., ATG4B, ATG7, Beclin1, and Vps34 are involved in 6J1-mediated exosomal PD-L1 secretion. ATG4B-, ATG7-, Beclin1-, or VPS34-knockout HeLa cells are treated with or without 6J1 (1 μM) for 24 h. The supernatant is collected, and the concentration of extracellular vesicle is determined using a Nanosight nanoparticle analyzer. The exosomes are also collected and subjected to western blot analysis of the EVs marker and PD-L1 in FIG. 7d. The live cells are also labeled with an anti-PD-L1 antibody and subjected to flow cytometry analysis in FIG. 7e.

PD-L1 [3] = test: PD-L1 internalization assay (surface anti-PD-L1 antibody labelling, Rab5 colocalization) in HeLa cells; assay type: cell-based; details: HeLa cells pretreated 3 h; Pitstop2 30 uM, Filipin III 5 mg/mL
Method: Without intending to be limited by theory, it is believed that the endosomal trafficking of PD-L1, a type I membrane protein, remains poorly studied thus far. In the fixed HeLa cells stained with anti-PD-L1 antibody, HeLa cells are plated on coverslips in 24-well plates and fixed after 24 h. Cells are then co-stained with antibodies against PD-L1 and Rab5, LAMP1, CD63, Rab27A, Rab11. […] Thus, inventors speculate that PD-L1 at the cell surface may be subjected to an active endosomal trafficking process. To monitor the PD-L1's endosomal trafficking process, inventors label the PD-L1 at the cell surface in the live cells with an anti-PD-L1 antibody on ice for 1 h. They then incubate the cells with the warm medium at 37° C. for the indicated times to initiate the internalization of the PD-L1 antibody complex, followed by the immunostaining of RAB5, EEA1, LAMP1, or RAB11. […] In addition, HeLa cells are pretreated with Fillilin III (5 mg/mL) or Pistop2 (30 uM) for 3 h, then stained with the anti-PD-L1 antibody on ice for 1 h. At the indicated times after being incubated with a warm medium at 37° C., the cells are fixed and stained with an anti-Rab5 antibody. […] Furthermore, Rab5-knockout HeLa cells are transfected with CD63-mcherry and stained with the anti-PD-L1 antibody on ice for 1 h. After being incubated for 1.5 h in a warm medium at 37° C., the cells are fixed and imaged.

O=C(C=Cc1ccc(C=CC(=O)Nc2ccc(C3=NCCN3)cc2)cc1)Nc1ccc(C2=NCCN2)cc1 [GW4869, reference compound]
effect of GW4869 on 6J1-mediated reduction of cell surface PD-L1 (PD-L1 [1]): does not impair 6J1-mediated reduction of cell surface PD-L1
effect of GW4869 on 6J1-induced exosome secretion (4T1 cells): inhibits exosome secretion of 4T1 cells induced by 6J1

CO/C1=C\C(C)=C\[C@@H](C)[C@@H](O)[C@@H](C)C/C(C)=C/C=C/[C@H](OC)[C@@H]([C@@H](C)[C@@H](O)[C@H](C)[C@@]2(O)C[C@@H](O)[C@H](C)[C@@H](C(C)C)O2)OC1=O [bafilomycin A1]
total PD-L1 level in cells (PD-L1 [2]): markedly increases
exosomal PD-L1 level (PD-L1 [2]): markedly increases

CCCCC[C@@H](O)[C@H]1C(=O)O[C@H](C)[C@@H](O)/C=C/C=C/C=C/C=C/C=C(\C)[C@@H](O)C[C@H](O)C[C@H](O)C[C@H](O)C[C@H](O)C[C@H](O)C[C@@H]1O [Filipin III]
internalization of PD-L1 (PD-L1 [3]): does not affect the internalization of PD-L1

O=C1NC(=NS(=O)(=O)c2cccc3ccccc23)S/C1=C\c1ccc(Br)cc1 [Pitstop2]
internalization of PD-L1 (PD-L1 [3]): blocks the internalization of PD-L1

CCC(=O)N1CCN(c2ccc(-n3c(=O)ccc4cnc5ccc(-c6cnc7ccccc7c6)cc5c43)cc2C(F)(F)F)CC1 [Torin1]
total PD-L1 level in cells (PD-L1 [2]): little effect
exosomal PD-L1 level (PD-L1 [2]): little effect

C[C@H](CCC(=O)O)C[C@H](C)C[C@H](C)C(=O)/C=C(\O)[C@H](C)C[C@H](C)C/C=C/[C@@H](C)[C@@H](O)[C@@H](C)[C@@H](O)C[C@@H]1CC[C@@](C)([C@H]2CC[C@@](C)([C@@H](C)O)O2)O1 [ionomycin]
exosomal PD-L1 level (PD-L1 [2]): markedly increases the exosomal PD-L1 level; also recorded: markedly increased exosomal PD-L1 level
